# Columns and labels:
# [1] = test system: NGF stimulated pERK1/2 activation in PC-12 cells; assay: Tanezumab / SOS1 inhibitor combination in the NGF stimulated pERK1/2 PC-12 assay; format: cell-based, rat
# Description: The combined inhibitory effect of a selective, small molecule SOS1 inhibitor and known antibody based NGF inhibitor, Anti-NGF was monitored via an HTRF readout measuring phosphorylation of ERK1/2 by NGF activation. All assays were performed in rat adrenal PC-12 cells (Merck) that had been serum-starved for a period of 24 hours in RPMI-1640 growth medium (Gibco) supplemented with 1% heat-inactivated horse serum (Merck), 0.5% heat-inactivated fetal bovine serum (FBS), 1% penicillin-streptomycin and 2 mM L-Glutamine unless specified otherwise. Reagents from the HTRF commercial kit (Cisbio) were prepared according to the manufacturer's instructions.
# PC-12 cells were isolated from routine cellular culture and plated at an appropriate cell density (typically 25,000 cells per well) in 384-well plates for 24 hours under serum-starved conditions. Working preparations of varying Anti-NGF (Abcam) concentrations and a fixed NGF concentration were prepared in serum-starved media and pre-incubated for 30 minutes (37° C./5% CO2). […] A 2-hour incubation at room temperature was performed prior to fluorescence signal being measured in a microplate reader (PHERAstar FSX, BMG Labtech).
# Percentage inhibition values were calculated per compound concentration by normalising the sample data to the high and low controls used within each plate (+/−250 ng/mL NGF respectively). […] Response data were then plotted against the molar logarithm for each SOS1 inhibitor compound concentration together with the determined fit results for display purposes. […] The mean percentage inhibition value calculated for both the top and bottom concentration of SOS1 inhibitor compound tested per Anti-NGF:NGF combination was extracted and compared in tabular form across the different Anti-NGF:NGF combinations tested.
# The ability of an NGF inhibitor Tanezumab in combination with a SOS1 inhibitor to treat pain was measured in the Inhibition of Nerve Growth Factor (NGF) stimulated phospho-Extracellular Regulated Kinase 1 and 2 (pERK1/2) activation in the PC-12 cell line assay.
# [2] = test system: knee osteoarthritis pain model; settings: rats, 10 mg/kg; cited from earlier work
# [3] = Analgesic effect of SOS1 inhibitor combined with Tanezumab; format: in vivo
substance,measurement,setting,value
Tanezumab: an example of an anti-NGF antibody,efficacy,[1]; Tanezumab 50 nM in combination with SOS1 inhibitor 500 nM,~96%
same,efficacy,"[1]; Tanezumab alone, 50 nM",90%
same,efficacy,"[1]; tanezumab alone, 200 nM",100%
same,efficacy,[2],shows efficacy
same,analgesic effect,[3]; 0.3 mg/kg Tanezumab in combination with low doses of a SOS1 inhibitor,significant analgesic effect
same,increase in analgesia versus dose,"[3]; fixed dose SOS1 inhibitor, varied antibody dose",efficacy is dose related
